# In patent US20230131025A1, “QUINOLYL PHOSPHINE OXIDE COMPOUND, AND COMPOSITION AND APPLICATION THEREOF” (Betta Pharmaceuticals Co., Ltd., priority 2020, published 2023):
# Columns and labels:
# Ba/F3 EGFR WT = Ba/F3 EGFR WT (Homo sapiens, UniProt P00533); experiment: Cell proliferation experiment (CellTiter Glo, 72 hours); format: cell-based; conditions: for GI50: read-out: BaF3 EGFR WT IC50
# Outline: (§1)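 Ba/F3 cells overexpressing EGFR Δ19del/T790M/C797S or EGFR WT were seeded at 2000 or 3000 cells/well and exposed 72 h to 9 compound concentrations (3-fold, top 10000 or 1111 nM final, 0.1% DMSO). CellTiter-Glo luminescence gave survival inhibition versus controls; IC50 from nonlinear fit.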
# Ba/F3-Δ19del/T790M/C797S = Ba/F3-Δ19del/T790M/C797S (Homo sapiens, UniProt P00533, T790M/C797S, cells depend on it, form not given); experiment: as above; format: cell-based; conditions: for GI50: read-out: Ba/F3/EGFR Δ19del/T790M/C797S IC50
# Outline: as §1
# [1] = In vivo efficacy data of Comparative example 1 cited from WO2019/015655A1, TGI and ED50 calculated; conditions: nonlinear fitting of dosage vs TGI calculated from cited data, FIG. 1
# Experimental: Moreover, the data of Comparative example 1 (in the patent WO2019/015655A1) was cited in Table 4, and the TGI of each administration group was calculated. Nonlinear fitting was performed according to the administrating dosage and the tumor growth inhibition rate TGI (%) corresponding to each dosage using GraphPad Prism 8. The fitting formula is as follows and its ED50 (half effective dose) was calculated: Y=Bottom+(Top-Bottom)/(1+10^((Log ED50−X)*HillSlope)).
# TGI was calculated according to the administration dosage and tumor growth volume of Comparative example 1. Nonlinear fitting was performed on the administration dosage and corresponding TGI (%). […] It can be seen that the half effective dose of compound J-022, which is 10 mg/kg/day, is equivalent to that of Comparative example 1.
# [2] = test system: human epidermal cancer cells A431 carrying EGFR WT; experiment: Cell proliferation experiment (CellTiter Glo, 72 hours); format: cell-based; conditions: for IC50: Homo sapiens, A-431
# Outline: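 Cells seeded at 2000 or 3000/well and exposed 72 h to 9-point 3-fold dilutions, top final 10000 nM or 1111 nM, 0.1% DMSO. Viability by CellTiter-Glo luminescence. Inhibition relative to cell and medium controls; IC50 by four-parameter nonlinear regression.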
# EGFR Δ19del/T790M/C797S = EGFR Δ19del/T790M/C797S (Homo sapiens, UniProt P00533, T790M/C797S, form not given); experiment: Kinase inhibition assay (mobility shift); format: biochemical
# Outline: (§2)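 Caliper mobility-shift read of substrate conversion after kinase-compound preincubation 10 min at room temperature, then ATP/substrate addition and reaction at room temperature. Ten-point 3-fold dilutions from 3,000 or 100 nM top; IC50 from variable-slope four-parameter fit of percent inhibition.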
# EGFR WT = EGFR WT (Homo sapiens, UniProt P00533); experiment: Kinase inhibition assay (mobility shift); format: biochemical
# Outline: as §2
# IGF1R = IGF1R (Homo sapiens, UniProt P08069); experiment: Kinase inhibition assay (mobility shift); format: biochemical
# Outline: as §2
# [3] = In vivo safety experiment (body weight, tolerance); conditions: for Mortality of mice / Body weight of mouse: 75 mg/kg/day oral QD; for Mortality of mice: 7 consecutive days, 5 mice
# Experimental: The safety evaluation of the drug was carried out in BALB/c nude mice. […] They were fed in an SPF environment, and each cage was individually ventilated (5 mice per cage). All cages, bedding and water were disinfected prior to use. Mice were purchased from Viton Lever and were allowed to acclimate in the laboratory. Mice were administered orally QD.
# Sequence of EGFR Δ19del/T790M/C797S (P00533 with tags, fused parts or gaps DEL746-750/T790M/C797S, form open): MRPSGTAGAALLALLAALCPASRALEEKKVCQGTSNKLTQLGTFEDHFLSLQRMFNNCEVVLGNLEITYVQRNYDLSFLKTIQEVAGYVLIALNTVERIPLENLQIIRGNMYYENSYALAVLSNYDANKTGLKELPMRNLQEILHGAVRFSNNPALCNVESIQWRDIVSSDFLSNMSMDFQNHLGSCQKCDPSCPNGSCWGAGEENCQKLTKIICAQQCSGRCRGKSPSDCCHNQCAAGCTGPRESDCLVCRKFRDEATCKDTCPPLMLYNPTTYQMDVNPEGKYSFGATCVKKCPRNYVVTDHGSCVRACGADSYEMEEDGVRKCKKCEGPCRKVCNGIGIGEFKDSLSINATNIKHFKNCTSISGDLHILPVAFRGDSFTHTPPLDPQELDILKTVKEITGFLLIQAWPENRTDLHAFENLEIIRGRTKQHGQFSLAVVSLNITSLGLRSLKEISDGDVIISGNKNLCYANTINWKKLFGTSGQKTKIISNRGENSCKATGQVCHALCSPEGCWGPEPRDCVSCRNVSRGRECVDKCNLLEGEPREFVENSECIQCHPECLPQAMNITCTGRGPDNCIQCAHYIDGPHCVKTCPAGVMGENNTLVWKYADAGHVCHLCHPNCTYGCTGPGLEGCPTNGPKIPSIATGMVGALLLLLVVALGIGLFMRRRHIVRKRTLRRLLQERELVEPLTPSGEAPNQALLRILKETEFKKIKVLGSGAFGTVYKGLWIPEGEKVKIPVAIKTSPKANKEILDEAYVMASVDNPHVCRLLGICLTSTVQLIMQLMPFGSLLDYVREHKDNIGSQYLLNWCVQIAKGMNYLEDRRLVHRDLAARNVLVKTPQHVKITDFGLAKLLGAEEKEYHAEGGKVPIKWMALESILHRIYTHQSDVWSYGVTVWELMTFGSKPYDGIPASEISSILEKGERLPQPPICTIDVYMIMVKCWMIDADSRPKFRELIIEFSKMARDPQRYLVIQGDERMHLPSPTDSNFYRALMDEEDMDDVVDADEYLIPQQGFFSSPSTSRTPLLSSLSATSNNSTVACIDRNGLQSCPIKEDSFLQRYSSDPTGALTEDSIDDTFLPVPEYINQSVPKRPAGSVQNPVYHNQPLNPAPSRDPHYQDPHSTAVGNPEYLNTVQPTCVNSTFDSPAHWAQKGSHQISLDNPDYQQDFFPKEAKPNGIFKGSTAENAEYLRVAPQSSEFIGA
# Sequence of Ba/F3-Δ19del/T790M/C797S (P00533 with tags, fused parts or gaps DEL746-750/T790M/C797S, form open): as above
# Sequence of EGFR WT (P00533 25-1210): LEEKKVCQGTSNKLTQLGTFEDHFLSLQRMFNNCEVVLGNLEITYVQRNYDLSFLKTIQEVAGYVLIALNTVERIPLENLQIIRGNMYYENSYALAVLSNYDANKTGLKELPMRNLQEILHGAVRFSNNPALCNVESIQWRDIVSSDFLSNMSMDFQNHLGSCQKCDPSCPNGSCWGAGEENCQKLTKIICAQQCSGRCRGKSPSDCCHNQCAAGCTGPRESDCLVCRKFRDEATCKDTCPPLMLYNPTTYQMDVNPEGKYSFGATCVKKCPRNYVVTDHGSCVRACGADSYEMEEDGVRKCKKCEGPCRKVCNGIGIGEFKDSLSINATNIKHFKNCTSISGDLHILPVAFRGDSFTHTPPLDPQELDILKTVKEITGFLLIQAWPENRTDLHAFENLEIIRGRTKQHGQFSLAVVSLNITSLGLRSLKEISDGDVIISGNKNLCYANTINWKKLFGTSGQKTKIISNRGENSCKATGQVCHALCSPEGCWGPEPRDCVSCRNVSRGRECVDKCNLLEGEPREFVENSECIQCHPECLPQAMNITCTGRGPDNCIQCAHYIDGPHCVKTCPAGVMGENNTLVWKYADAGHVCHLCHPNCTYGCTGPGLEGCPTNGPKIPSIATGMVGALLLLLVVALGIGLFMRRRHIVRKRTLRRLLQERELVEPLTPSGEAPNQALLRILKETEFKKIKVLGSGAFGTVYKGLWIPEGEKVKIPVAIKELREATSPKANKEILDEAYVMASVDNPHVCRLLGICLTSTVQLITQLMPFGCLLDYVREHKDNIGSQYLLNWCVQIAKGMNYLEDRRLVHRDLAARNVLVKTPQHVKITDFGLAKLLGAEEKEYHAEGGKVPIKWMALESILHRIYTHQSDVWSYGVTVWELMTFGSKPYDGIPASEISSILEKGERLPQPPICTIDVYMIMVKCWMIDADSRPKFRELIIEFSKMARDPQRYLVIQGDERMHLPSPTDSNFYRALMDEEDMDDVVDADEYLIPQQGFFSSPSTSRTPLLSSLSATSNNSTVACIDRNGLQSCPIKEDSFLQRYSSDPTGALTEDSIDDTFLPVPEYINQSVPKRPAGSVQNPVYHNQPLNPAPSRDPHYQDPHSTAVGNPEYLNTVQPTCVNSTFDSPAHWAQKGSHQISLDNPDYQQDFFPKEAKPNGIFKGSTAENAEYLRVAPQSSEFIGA
# Sequence of IGF1R (P08069 31-1367, species assumed): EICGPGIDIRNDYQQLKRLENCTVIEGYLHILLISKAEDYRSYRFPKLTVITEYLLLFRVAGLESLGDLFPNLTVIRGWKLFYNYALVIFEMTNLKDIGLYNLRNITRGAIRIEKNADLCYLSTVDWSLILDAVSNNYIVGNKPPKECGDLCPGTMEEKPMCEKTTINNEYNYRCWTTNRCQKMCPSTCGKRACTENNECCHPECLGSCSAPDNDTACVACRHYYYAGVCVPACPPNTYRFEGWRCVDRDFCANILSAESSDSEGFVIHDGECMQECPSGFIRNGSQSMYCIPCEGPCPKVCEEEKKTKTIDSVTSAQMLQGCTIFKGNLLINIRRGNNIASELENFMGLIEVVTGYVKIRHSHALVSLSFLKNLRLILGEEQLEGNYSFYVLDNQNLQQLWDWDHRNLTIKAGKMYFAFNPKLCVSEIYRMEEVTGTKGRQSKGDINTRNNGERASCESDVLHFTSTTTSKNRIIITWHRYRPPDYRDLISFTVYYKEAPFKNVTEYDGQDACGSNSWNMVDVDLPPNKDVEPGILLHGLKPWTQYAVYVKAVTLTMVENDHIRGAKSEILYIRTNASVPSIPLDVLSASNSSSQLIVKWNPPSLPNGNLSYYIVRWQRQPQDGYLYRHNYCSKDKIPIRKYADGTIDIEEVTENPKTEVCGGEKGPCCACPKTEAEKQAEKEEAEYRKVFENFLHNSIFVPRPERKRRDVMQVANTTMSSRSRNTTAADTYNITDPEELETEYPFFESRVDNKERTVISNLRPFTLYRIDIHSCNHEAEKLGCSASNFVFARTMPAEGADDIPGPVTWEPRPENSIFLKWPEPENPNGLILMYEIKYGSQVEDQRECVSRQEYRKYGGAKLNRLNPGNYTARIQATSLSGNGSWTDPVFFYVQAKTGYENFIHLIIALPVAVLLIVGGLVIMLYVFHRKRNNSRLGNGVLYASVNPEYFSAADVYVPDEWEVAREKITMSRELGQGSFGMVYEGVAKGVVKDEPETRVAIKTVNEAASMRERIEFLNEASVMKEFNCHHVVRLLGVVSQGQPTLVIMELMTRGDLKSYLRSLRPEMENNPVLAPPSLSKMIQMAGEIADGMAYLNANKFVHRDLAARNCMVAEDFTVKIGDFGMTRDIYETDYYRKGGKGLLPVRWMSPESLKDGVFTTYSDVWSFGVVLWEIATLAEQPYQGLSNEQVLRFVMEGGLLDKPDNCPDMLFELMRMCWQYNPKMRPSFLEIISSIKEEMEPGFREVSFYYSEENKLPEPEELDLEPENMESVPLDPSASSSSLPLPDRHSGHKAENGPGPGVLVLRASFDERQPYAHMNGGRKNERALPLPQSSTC
GI50 (Ba/F3 EGFR WT),GI50 (Ba/F3-Δ19del/T790M/C797S),IC50 (EGFR WT),IC50 (IGF1R),IC50 [2],IC50 (EGFR Δ19del/T790M/C797S),SMILES,BaF3 EGFR WT IC50 (Ba/F3 EGFR WT),Ba/F3/EGFR Δ19del/T790M/C797S IC50 (Ba/F3-Δ19del/T790M/C797S),half effective dose ED50 (dosage at TGI 50%) [1],A431 IC50 [2],EGFR Δ19del/T790M/C797S IC50 (EGFR Δ19del/T790M/C797S),EGFR WT IC50 (EGFR WT),IGF1R IC50 (IGF1R),Mortality of mice [3],Mortality of mice ([3]; listed as Comparative example 1),Body weight of mouse ([3]; 2 days),Body weight of mouse ([3]; 4 days),window from the effective dose to the intolerance dose ([3]; effective dose = dose corresponding to 50% TGI)
354 nM,28.4 nM,11.5 nM,25 nM,228 nM,0.2 nM,"COc1cc(N2CCC(N3CCN(C)CC3)CC2)c(C)cc1Nc1ncc(Br)c(Nc2ccc3ncccc3c2P(C)(C)=O)n1 [Compound J-041, (6-((5-Bromo-2-((2-methoxy-5-methyl-4-(4-(4-methylpiperazin-1-yl)piperidin-1-yl)phenyl)amino)pyrimidin-4-yl)amino)quinolin-5-yl)dimethylphosphine oxide]",–,–,–,–,–,–,–,–,–,–,–,–
296 nM,8.18 nM,21.1 nM,107 nM,373 nM,0.3 nM,"CCCc1ccc2c(P(C)(C)=O)c(Nc3nc(Nc4cc(C)c(N5CCC(N6CCN(C)CC6)CC5)cc4OC)ncc3Br)ccc2n1 [Compound J-042, (6-((5-Bromo-2-((2-methoxy-5-methyl-4-(4-(4-methylpiperazin-1-yl)piperidin-1-yl)phenyl)amino)pyrimidin-4-yl)amino)-2-propylquinolin-5-yl)dimethylphosphine oxide]",–,–,–,–,–,–,–,–,–,–,–,–

SMILES,GI50 (Ba/F3 EGFR WT),GI50 (Ba/F3-Δ19del/T790M/C797S),IC50 (EGFR WT),IC50 (IGF1R),IC50 [2],IC50 (EGFR Δ19del/T790M/C797S),BaF3 EGFR WT IC50 (Ba/F3 EGFR WT),Ba/F3/EGFR Δ19del/T790M/C797S IC50 (Ba/F3-Δ19del/T790M/C797S),half effective dose ED50 (dosage at TGI 50%) [1],A431 IC50 [2],EGFR Δ19del/T790M/C797S IC50 (EGFR Δ19del/T790M/C797S),EGFR WT IC50 (EGFR WT),IGF1R IC50 (IGF1R),Mortality of mice [3],Mortality of mice ([3]; listed as Comparative example 1),Body weight of mouse ([3]; 2 days),Body weight of mouse ([3]; 4 days),window from the effective dose to the intolerance dose ([3]; effective dose = dose corresponding to 50% TGI)
"CCc1cc(Nc2ncc(Br)c(Nc3ccc4nccnc4c3P(C)(C)=O)n2)c(OC)cc1N1CCC(N2CCN(C)CC2)CC1 [Comparable example 1, reference compound]",39.9 nM,9 nM,5.1 nM,9.5 nM,–,–,strong inhibitory effect,strong inhibitory effect,8.7 mg/kg/day,certain inhibitory effect,strong inhibitory effect,strong inhibitory activity,strong inhibitory activity,all the 5 mice died on the 6th day,all mice died of intolerance,began to decrease,decreased significantly,less than 8.6 times
